Data taken from patent US5574068A, “S-nitrosothiols as smooth muscle relaxants and therapeutic uses thereof” (Brigham and Woman's Hospital, priority 1994, dated 1996).
Entries after “also recorded” stand apart in the source; their conditions may differ. One block for each compound: values may come before it.

Assays:
[1] = tested on: human airway smooth muscle; experiment: Airway bioassay: relaxation of contracted human tracheal/airway rings; format: cell-based; details: for relaxant effect on human trachea, comparison with other agents: human tracheal rings, FIGS. 11-14; for IC50: human airways 5-12 mm outer diameter, contracted with methacholine (7 μM); for IC50 compared with theophylline: human airways contracted with methacholine (7 μM); for inhibition of S-nitrosothiol (SNOAC)-induced relaxation in human airways: methylene blue 10^-4, LY83583 5×10^-5, hemoglobin 100 μM
From the text: (§1) Male Hartley guinea pigs (500-600 g) were anesthetized by inhalation of enflurane to achieve a surgical plane of anesthesia. The trachea were excised and placed in Kreb's-Henseleit buffer (mM): NaCl 118, CKl 5.4, NaH2 PO4 1.01, glucose 11.1, NaHCO3 25.0, MgSO4 0.69, CaCl 2.32, pH 7.4. The airways were then dissected free from surrounding fat and connective tissue and cut into rings 2-4 mm in diameter. The trachea rings were placed in sterile Medium 199 containing 1% antibiotic/antimycotic mixture in an atmosphere of 5% CO2, 45% O2, […], and kept for up to 48 hours in tissue culture. The experiments were also performed on human airway smooth muscle, isolated by the same method.
(§2) Trachea and aortic rings were mounted on stirrups and connected to transducers (model FOT3C Grass) with which changes in isometric tension were measured. Rings were then suspended in 10 cc of oxygenareal (95% O2, 5% CO2) buffer. Conditions for both the vessel and airway bioassays were established according to standard methodologies as described in Cooke et al., Am. J. Physiol. 259(3):H804-H812 (1990).
(§3) In airway experiments, the tings were equilibrated for 60 minutes under a load of 1 gm and then primed twice by exposure to 100 μmethacholine. Tissues were contracted with various agonists at concentrations determined to generate 50% (±16% S.D.) of maximum tone, after which the effects of different thiols and their S-nitrosylated derivatives were assessed. In selected experiments, relaxation responses were determined in the presence of hemoglobin, or after rings had been preexposed to methylene blue for 30 minutes.
(§4) The effect of guanylate cyclase inhibitors upon S-nitrosothiol-induced airway relaxation and cGMP increase was assessed, using the previously described bioassay and cyclic nucleotide assay procedures. Bronchodilator effects of S-NOGSH and SNOAC were examined in human airways (5-12 mm outer diameter).

hemoglobin = biological target: T1, hemoglobin (Bos taurus, UniProt P01966+P02070); experiment: Reaction of S-nitrosothiol with hemoglobin (UV spectrum, oxygen association curve); format: biochemical, bovine; details: SNOAC over 15 minutes, NO from NaNO2 in 0.5N HCl
T1 construct: purchased Sigma Chemical Co., St. Louis, Mo
Description: Additional experiments were conducted to evaluate the reaction between S-nitrosothiols and hemoglobin. […] S-nitrosylation was verified, using standard methods for detection of S-nitrosothiols (Saville, Analyst 83:670-672 (1958)). The Saville method, which assays free NOx in solution, involves a diazotization reaction with sulfanilamide and subsequent coupling with the chromophore N-(1-naphthyl)ethylenediamine. The specificity for S-nitrosothiols derives from assay determinations performed in the presence and absence of HgCl2, the latter reagent catalyzing the hydrolysis of the S--NO bond.
For the purposes of comparison, equimolar concentrations of hemoglobin and NaNO2 were reacted in 0.5N HCl, to form nitrosyl-hemoglobin, and the UV spectrum was obtained.
Thus, the reaction between S-nitrosothiols and hemoglobin not only eliminates the inhibition of oxygen binding which occurs from the reaction with NO.cndot., but actually increases binding and oxygenation of the blood.

[2] = Stability in the presence of oxygen and redox metals; format: physicochemical; details: 95% O2, pH 7.4
Description: The stability of SNOAC and SNOGSH in the presence of oxygen and redox metals was assessed.
In addition, S-nitrosothiol stability was assessed in the presence of various redox metals or chelating agents. These compounds were resistant to decomposition when Cu^+, Fe^2+, or Cu^2+ (50 μM) or defuroxamine or EDTA S-nitrosothiols are not rapidly inactivated in the presence of oxygen, nor do they decompose in the presence of redox metals.

cGMP in human airways = experiment: Cyclic GMP radioimmunoassay in human airways; format: cell-based
Description: (§5) The mechanism by which S-nitrosothiols relax vascular smooth muscle is felt to be through activation of guanylate cyclase with consequent increase in intracellular cyclic GMP (Ignarro et al., Circ. Res. 65:1-21 (1989); Loscalzo et al., J. Pharmacol. Exp. Ther. 249(3):726-729 (1989)). In order to assess this mechanism in airways, tracheal rings in Kreb's-Henseleit solution were exposed to 100 μM S-nitroso-N-acetylcysteine (SNOAC) for 90 seconds. Reactions were terminated by the addition of ice cold 10% trichloracetic acid and rapid freezing in ethanol-saturated dry ice.
(§6) In selected experiments, rings were preexposed to the guanylate cyclase inhibitor, methylene blue (10^-4 M) for 30 minutes. Tissues were then individually pulverized with a glass (s) homogenizer and centrifuged at 8000 g for 5 minutes. The clear supernatant was extracted with water-saturated ether and assayed for cyclic GMP by radioimmunoassay. Acetylation of samples with acetic anhydride was used to increase the sensitivity of the assay and the determination of recoveries was aided by the use of [^3 H] cyclic GMP.
as §4

[3] = tested on: gastrointestinal smooth muscle (Sphincter of Oddi, duodenum, colon); experiment: Patient studies: topical administration during endoscopy, gastrointestinal smooth muscle motility; format: in vivo, human; details: patients
From the text: Patient studies, conducted by the inventors, have measured the efficacy of S-nitrosothiols both in facilitating cannulation of the sphincter of Oddi, and in decreasing colon motility to allow for removal of colon polyps. […] The same type of effects would occur with the use of other cell impermeable S-nitrosothiols, such as S-nitroso-glutathione.

[4] = tested on: cyclic GMP (guanylate cyclase) in tracheal rings; experiment: Cyclic GMP radioimmunoassay in guinea pig tracheal rings; format: cell-based
Description: as §5, §6

[5] = tested on: guinea pig tracheal rings; experiment: Airway bioassay: relaxation of contracted guinea pig tracheal rings (isometric tension); format: cell-based; details: for IC50: Cavia porcellus, guinea pig tracheal rings contracted with 3 μM histamine, mean ± S.D., read-out: Inhibitory Concentrations Inducing 50% Relaxation (IC50); for inhibition of relaxation responses to SNOAC: airways contracted with 3 uM histamine, 10^-5 M and 10^-4 M methylene blue; for inhibition of relaxation responses to SNOAC / attenuation of the actions (relaxation) of SNOAC: 10^-4 M hemoglobin; for attenuation of the actions (relaxation) of SNOAC: guinea pig airways, 10^-5 and 10^-4 M methylene blue
From the text: as §1, §2, §3
Dose-response relationships to SNOAC were obtained in airways contracted with 3 uM histamine, and repeated in the presence of 10^-4 M hemoglobin, 10^-5 M methylene blue, and 10^-4 M methylene blue. […] Cyclic GMP determinations were performed in duplicate for each experiment.

[6] = cited from earlier work

T1 sequence (P02070 whole entry): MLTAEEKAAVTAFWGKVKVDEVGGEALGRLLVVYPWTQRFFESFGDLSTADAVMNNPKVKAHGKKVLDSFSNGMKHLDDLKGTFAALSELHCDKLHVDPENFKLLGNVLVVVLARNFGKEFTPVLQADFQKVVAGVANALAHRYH
T1 sequence (P01966 2-142 limits assumed): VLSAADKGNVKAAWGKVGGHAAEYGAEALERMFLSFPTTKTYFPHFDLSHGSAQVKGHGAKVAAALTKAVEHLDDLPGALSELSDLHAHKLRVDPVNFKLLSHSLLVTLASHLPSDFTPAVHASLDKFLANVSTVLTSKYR

Compound: CC(=O)N[C@@H](CS)C(=O)O [N-acetylcysteine, reference compound]
relaxant effect on human trachea, comparison with other agents [1]: caused significant constriction of the tracheal smooth muscle

Compound: [N]=O [NO, nitric oxide, reference compound]
reaction at the redox metal (iron-binding) site of hemoglobin (hemoglobin): reacted instantaneously with the redox metal site on hemoglobin | half life [2]: on the order of seconds

IC50 [5]: 2.1 ± 0.8 µM | half life [2]: on the order of hours | IC50 [1]: 22 µM
Compound: CC(=O)N[C@@H](CSN=O)C(=O)O [S-nitroso-N-acetylcysteine]
increase in cyclic GMP over basal levels (control) (cGMP in human airways; human airways incubated with SNOAC): 4 fold | cGMP (cGMP in human airways; human airways, Table 3): 46 ± 17 Pmol/gm | duration and reversibility of relaxant effects [3]: temporary (lasting only for the duration of the procedure), completely reversible | systemic blood pressure, heart rate, oxygen saturation [3]: produced no change in systemic blood pressure, heart rate or oxygen saturation | colon motility ([3]; removal of colon polyps): eliminated colon motility | duodenal motility ([3]; topical administration): eliminated duodenal motility | contractile activity of the Sphincter of Oddi ([3]; topical administration, endoscopic cannulation): inhibited the contractile activity of the Sphincter of Oddi | increase in cyclic GMP over basal levels (control) ([4]; guinea pig tracheal rings, 100 μM SNOAC, 90 seconds): 4 fold | reaction at the redox metal (iron-binding) site of hemoglobin (hemoglobin): no reaction at the redox metal (iron-binding site) of hemoglobin | persistence of relaxation ([5]; 5×10^-6 M, at one hour): significant residual loss of tone was still evident at one hour | time to maximal relaxation ([5]; 5×10^-6 M, followed over 60 minutes): maximal relaxation occurred by five minutes | relaxant activity of SNOAC relative to SNOCAP ([5]; contractions induced by leukotriene D4, histamine, methacholine, in every case): approximately 10 fold | relaxant activity relative to theophylline ([5]; identical study conditions, FIG. 8): approximately 50 times | IC50 compared with theophylline [1]: approximately two orders of magnitude greater than theophylline | relaxant effect on human trachea, comparison with other agents ([1]; listed as SNOAC): significantly greater than that of N-acetylcysteine; also recorded: significantly more potent than that of theophylline; also recorded: compares favorably with that exerted by isoproterenol

IC50 [5]: 20 ± 0.7 µM
Compound: C[C@H](CSN=O)C(=O)N1CCC[C@H]1C(=O)O [S-nitroso-captopril]

IC50 [5]: 3.2 ± 0.2 µM
Compound: N[C@@H](CSN=O)C(=O)O [S-nitroso-cysteine]

IC50 [5]: 0.99 ± 2 µM | half life [2]: on the order of hours | IC50 [1]: 22 µM
Compound: N[C@@H](CCC(=O)N[C@@H](CSN=O)C(=O)NCC(=O)O)C(=O)O [S-nitroso-glutathione]
IC50 compared with theophylline [1]: approximately two orders of magnitude greater than theophylline | relaxant effect on human trachea, comparison with other agents [1]: significantly greater than nitrite (NO2) | relaxant effect on human trachea, comparison with other agents ([1]; listed as S-nitrosoglutathione): significantly greater than glutathione alone | relaxant effect on human trachea, comparison with other agents ([1]; listed as SNOGSH): significantly more potent than that of theophylline; also recorded: compares favorably with that exerted by isoproterenol

IC50 [5]: 2.1 ± 0.3 µM
Compound: N[C@@H](CCSN=O)C(=O)O [S-nitroso-homocysteine]

Compound: CC(C)NCC(O)c1ccc(O)c(O)c1 (stereo not shown) [isoproterenol, reference compound]
rank of relaxant activity among SNOAC, isoproterenol, theophylline ([5]; FIG. 8): most active relaxant

effect on SNOAC-induced increase in cyclic GMP ([4]; pretreatment with methylene blue 10^-4 M, 30 minutes): attenuated
Compound: CN(C)c1ccc2nc3ccc(=[N+](C)C)cc-3sc2c1 [methylene blue, reference compound]
inhibition of relaxation responses to SNOAC [5]: in a dose-dependent manner | attenuation of the actions (relaxation) of SNOAC [5]: 10-20% | inhibition of S-nitrosothiol (SNOAC)-induced relaxation in human airways [1]: neither hemoglobin or methylene blue attenuated the relaxation effect; also recorded: not significantly inhibited

Compound: Cn1c(=O)c2[nH]cnc2n(C)c1=O [theophylline]
plasma concentration at which unacceptable symptoms of toxicity usually appear [6]: ≥ 20 µg/mL

Compound: hemoglobin: hemoglobin (bovine), established inhibitor of NO-induced relaxations
inhibition of relaxation responses to SNOAC [5]: inhibited | attenuation of the actions (relaxation) of SNOAC [5]: 10-20% | inhibition of S-nitrosothiol (SNOAC)-induced relaxation in human airways [1]: neither hemoglobin or methylene blue attenuated the relaxation effect; also recorded: had little effect
